Assay results from ChEMBL document CHEMBL1201862, “PubChem BioAssay data set” (2004).
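Cells were grown in 96-well plates and exposed to each compound for 48 hours at five concentrations; endpoints were interpolated linearly between bracketing concentrations, or set to the highest concentration if not reached. GI50 = concentration required for 50% inhibition of growth.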 Active and inactive are the calls of the source. Cut-off read from the data, not from the text of the source: active = GI50 up to about 1.1 µM and inactive = higher.

Key:
Assay in all cases: NCI-60 cell line screen, 48 h
CCRF-CEM = tested on: CCRF-CEM
HCC 2998 = tested on: HCC 2998
HCT-15 = tested on: HCT-15
NCI-H522 = tested on: NCI-H522
MOLT-4 = tested on: MOLT-4
IGROV-1 = tested on: IGROV-1
SK-MEL-5 = tested on: SK-MEL-5
SK-MEL-2 = tested on: SK-MEL-2
KM12 = tested on: KM12
OVCAR-4 = tested on: OVCAR-4
COLO 205 = tested on: COLO 205
SK-MEL-28 = tested on: SK-MEL-28
A549 = tested on: A549
OVCAR-5 = tested on: OVCAR-5
EKVX = tested on: EKVX
NCI-H460 = tested on: NCI-H460
SNB-75 = tested on: SNB-75
SF-295 = tested on: SF-295
Malme-3M = tested on: Malme-3M
LOX IMVI = tested on: LOX IMVI

SMILES | GI50 (CCRF-CEM) | GI50 (HCC 2998) | GI50 (HCT-15) | GI50 (NCI-H522) | GI50 (MOLT-4) | GI50 (IGROV-1) | GI50 (SK-MEL-5) | GI50 (SK-MEL-2) | GI50 (KM12) | GI50 (OVCAR-4) | GI50 (COLO 205) | GI50 (SK-MEL-28) | GI50 (A549) | GI50 (OVCAR-5) | GI50 (EKVX) | GI50 (NCI-H460) | GI50 (SNB-75) | GI50 (SF-295) | GI50 (Malme-3M) | GI50 (LOX IMVI)
Cc1ccc(S(=O)(=O)NNC(=O)Nc2ccc(Cl)cc2)cc1 | > 100 µM (inactive) | > 100 µM (inactive) | > 100 µM | > 100 µM (inactive) | > 100 µM (inactive) | > 100 µM (inactive) | 53 µM (inactive) | > 100 µM (inactive) | > 100 µM (inactive) | 51.5 µM (inactive) | > 100 µM (inactive) | > 100 µM (inactive) | > 100 µM (inactive) | > 100 µM (inactive) | > 100 µM (inactive) | > 100 µM (inactive) | 25.5 µM (inactive) | > 100 µM (inactive) | > 100 µM (inactive) | 
O=Cc1ccccc1CCn1c(=O)c2cc3c(=O)n(CCc4ccccc4C=O)c(=O)c3cc2c1=O | > 100 µM (inactive) |  | > 100 µM | > 100 µM (inactive) | > 100 µM (inactive) | > 100 µM (inactive) | > 100 µM (inactive) | > 100 µM (inactive) | > 100 µM (inactive) | > 100 µM (inactive) |  | > 100 µM (inactive) | > 100 µM (inactive) |  |  | > 100 µM (inactive) | > 100 µM (inactive) | > 100 µM (inactive) | > 100 µM (inactive) | > 100 µM (inactive)
CCOC(=O)/C(Cl)=C(\C)Nc1nc2c(ccc3ccccc32)s1 | 7.87 µM (inactive) | 16.4 µM (inactive) | 26.1 µM | 9.35 µM (inactive) | 7.28 µM (inactive) | > 100 µM (inactive) | 31.2 µM (inactive) | 26.6 µM (inactive) | 30.6 µM (inactive) | 87.7 µM (inactive) | 47.9 µM (inactive) | > 100 µM (inactive) |  | 81.1 µM (inactive) | 32.6 µM (inactive) | 22.5 µM (inactive) | 14.6 µM (inactive) | > 100 µM (inactive) | 15.6 µM (inactive) | 
O=c1ccc2ccc(CBr)cc2o1 | 1.78 µM (inactive) | 3.34 µM (inactive) | 1.87 µM | 1.26 µM (inactive) | 2.29 µM (inactive) | 3.57 µM (inactive) | 2.79 µM (inactive) | 11.4 µM (inactive) |  |  |  | 13.6 µM (inactive) | 15.5 µM (inactive) | 1.73 µM (inactive) | 2.49 µM (inactive) | 10.8 µM (inactive) | > 100 µM (inactive) | 15.3 µM (inactive) |  | 1.5 µM (inactive)
COc1cc(C2S/C(=C/c3ccccc3)C(=O)N2c2ccccc2Cl)cc(OC)c1OC (stereo unspecified) |  | 33 µM (inactive) | 27.5 µM | 12.4 µM (inactive) | 41.8 µM (inactive) |  | 20.7 µM (inactive) | 16 µM (inactive) | 22 µM (inactive) | 28.2 µM (inactive) | 33.3 µM (inactive) | 42.2 µM (inactive) | 37.1 µM (inactive) | 42.5 µM (inactive) | 13.6 µM (inactive) |  | 6.21 µM (inactive) | 28.9 µM (inactive) | 29.8 µM (inactive) | 18.7 µM (inactive)
COc1ccc(NC(C)=O)cc1N1C(=O)/C(=C\c2ccccc2)SC1c1cc(OC)c(OC)c(OC)c1 (stereo unspecified) | 21.2 µM (inactive) | 16.3 µM (inactive) | 21.7 µM | 13.8 µM (inactive) | 25.6 µM (inactive) | 25.9 µM (inactive) | 12 µM (inactive) | 31.8 µM (inactive) | 16.3 µM (inactive) |  | 26.6 µM (inactive) | 80.7 µM (inactive) | 30.1 µM (inactive) |  | 27.2 µM (inactive) | 15.5 µM (inactive) |  | 42.1 µM (inactive) | 24.3 µM (inactive) | 14.9 µM (inactive)
Clc1nc(-[n+]2ccc(-c3ccncc3)cc2)nc(Nc2ccccc2)c1Cl | 27.9 µM (inactive) | > 100 µM (inactive) | > 100 µM |  | 49.1 µM (inactive) | 59.7 µM (inactive) | > 100 µM (inactive) | > 100 µM (inactive) | > 100 µM (inactive) | > 100 µM (inactive) | > 100 µM (inactive) | > 100 µM (inactive) | > 100 µM (inactive) | > 100 µM (inactive) | 83.8 µM (inactive) | > 100 µM (inactive) |  |  | > 100 µM (inactive) | 50.4 µM (inactive)
Cc1ccc(S(=O)(=O)OCCN(CCOS(=O)(=O)c2ccc(C)cc2)c2ccc(C=O)cc2)cc1 | 34.8 µM (inactive) | 28.7 µM (inactive) | 30.1 µM | 10.8 µM (inactive) | 32.4 µM (inactive) | 36.1 µM (inactive) | 32.9 µM (inactive) | 16.5 µM (inactive) | 22.8 µM (inactive) | 21.2 µM (inactive) | 28.1 µM (inactive) | 31.4 µM (inactive) | 32.5 µM (inactive) | 25.3 µM (inactive) | 30.8 µM (inactive) | 21.9 µM (inactive) |  | 44.3 µM (inactive) | 25.4 µM (inactive) | 38.7 µM (inactive)
O/N=C\c1cc(O)c(O)c(/C=N/O)c1 | 7.66 µM (inactive) |  | 34.9 µM | 8.73 µM (inactive) | 21.4 µM (inactive) | 41.4 µM (inactive) | 33.2 µM (inactive) | 67.9 µM (inactive) | 38.4 µM (inactive) | 52 µM (inactive) | 34.4 µM (inactive) | > 100 µM (inactive) | 25.2 µM (inactive) | 96.2 µM (inactive) | 34.8 µM (inactive) | 27.9 µM (inactive) | > 100 µM (inactive) | 55.1 µM (inactive) | > 100 µM (inactive) | 47.8 µM (inactive)
CO[C@H]1SC[C@H](OC(C)=O)[C@H](OC(C)=O)[C@H]1OC(C)=O | > 100 µM (inactive) | > 100 µM (inactive) | > 100 µM | > 100 µM (inactive) | > 100 µM (inactive) | > 100 µM (inactive) | > 100 µM (inactive) | > 100 µM (inactive) | > 100 µM (inactive) | > 100 µM (inactive) | > 100 µM (inactive) | > 100 µM (inactive) | > 100 µM (inactive) |  | > 100 µM (inactive) | > 100 µM (inactive) |  | > 100 µM (inactive) | > 100 µM (inactive) | > 100 µM (inactive)
O=S(=O)(N/N=C/c1ccc(Cl)cc1Cl)c1ccccc1 | 38.5 µM (inactive) | > 100 µM (inactive) | > 100 µM |  | 34.7 µM (inactive) | > 100 µM (inactive) | > 100 µM (inactive) | > 100 µM (inactive) | 51.2 µM (inactive) | > 100 µM (inactive) | 62.4 µM (inactive) | 67.8 µM (inactive) | > 100 µM (inactive) | > 100 µM (inactive) | > 100 µM (inactive) |  | 83 µM (inactive) | > 100 µM (inactive) | > 100 µM (inactive) | 97.9 µM (inactive)
COC(=O)C1=Nc2c(C)nn(-c3ccccc3)c2N=C(c2ccccc2)C1 |  | > 10 µM (inactive) | > 10 µM | > 10 µM (inactive) | > 10 µM (inactive) | > 10 µM (inactive) | > 10 µM (inactive) |  | > 10 µM (inactive) | > 10 µM (inactive) | > 10 µM (inactive) | > 10 µM (inactive) | > 10 µM (inactive) | 0.001 µM (active) |  |  | > 10 µM (inactive) | > 10 µM (inactive) | > 10 µM (inactive) | > 10 µM (inactive)
C[C@H](N[C@H]1CCC[C@]1(O)C#Cc1ccc2c(c1)OCO2)c1ccccc1 | > 25 µM (inactive) | 10.7 µM (inactive) | > 25 µM |  | 10.9 µM (inactive) | 14.3 µM (inactive) | 22.6 µM (inactive) | 8.61 µM (inactive) | > 25 µM (inactive) | 14 µM (inactive) | 9.25 µM (inactive) | 15.5 µM (inactive) | > 25 µM (inactive) | > 25 µM (inactive) | > 25 µM (inactive) | 21.4 µM (inactive) | 15.4 µM (inactive) | > 25 µM (inactive) |  | > 25 µM (inactive)
C/C(CC(=O)Nc1ccccc1)=N\NC(N)=S | > 100 µM (inactive) | > 100 µM (inactive) |  | > 100 µM (inactive) | > 100 µM (inactive) | > 100 µM (inactive) | > 100 µM (inactive) | > 100 µM (inactive) | > 100 µM (inactive) |  | > 100 µM (inactive) | > 100 µM (inactive) | > 100 µM (inactive) | > 100 µM (inactive) | > 100 µM (inactive) | > 100 µM (inactive) | > 100 µM (inactive) | > 100 µM (inactive) | > 100 µM (inactive) | > 100 µM (inactive)
Cc1cc(O)nc(NN2C(Cl)C(=O)C2c2cccc(Cl)c2)n1 (stereo unspecified) | 6.49 µM (inactive) | 31.2 µM (inactive) | 17.4 µM |  | 13.8 µM (inactive) | 14 µM (inactive) | 18.4 µM (inactive) | 16.7 µM (inactive) | 21.7 µM (inactive) | 28.2 µM (inactive) | > 10 µM (inactive) | 22.4 µM (inactive) | 47.8 µM (inactive) | 58.2 µM (inactive) | 36.6 µM (inactive) | 18.4 µM (inactive) | 20.8 µM (inactive) |  |  | 14.4 µM (inactive)
COc1cc(CCc2ccncc2)cc(OC)c1OC | > 100 µM (inactive) |  | > 100 µM | > 100 µM (inactive) | > 100 µM (inactive) | > 100 µM (inactive) | > 100 µM (inactive) |  | > 100 µM (inactive) | > 100 µM (inactive) | > 100 µM (inactive) | > 100 µM (inactive) | > 100 µM (inactive) | > 100 µM (inactive) | > 100 µM (inactive) | > 100 µM (inactive) | > 100 µM (inactive) | > 100 µM (inactive) | > 100 µM (inactive) | > 100 µM (inactive)
